The text below walks through data of patent publication US11634447B2 (priority 2012, dated 2023).

SMILES strings stand for the structures.

One experiment concerns the target bacterial strain LF82 binding to the glycoprotein BSA-(Mannose)3. Nature of the experiment: Bacterial Binding Assay (BBA). The class given is cell-based, Escherichia coli. The following applies: LF82/Luciferase strain binding to BSA-(Man)3 coated plates, luminescence; read-out: Bacterial Binding Assay IC50. In a few lines:
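Inhibition of LF82/luciferase E. coli adhesion is read as luminescence after washing off unbound cells. Compound and bacteria (10^7 per well) are co-incubated 40-75 min at room temperature on wells coated with 0.5-2 μg/mL BSA-(Man)3, with BSA-only wells as background; IC50 values derived.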
`OC[C@H]1O[C@H](C#Cc2ccc(-c3ccc(C#C[C@H]4O[C@H](CO)[C@@H](O)[C@H](O)[C@@H]4O)s3)s2)[C@@H](O)[C@@H](O)[C@@H]1O` [Compound 128]: the IC50 is 22 nM.

Still in this experiment, the particulars now being: read-out: Bacterial Binding Assay IC50, LF82/Luciferase strain binding to BSA-(Man)3 coated plates, luminescence.
On to `OC[C@H]1O[C@H](C#Cc2ccc3c(c2)C2(CCNCC2)c2cc(C#C[C@H]4O[C@H](CO)[C@@H](O)[C@H](O)[C@@H]4O)ccc2-3)[C@@H](O)[C@@H](O)[C@@H]1O` [Compound 192, (2R,3S,4R,5S,6R)-2-(Hydroxymethyl)-6-[2-[7-[2-[(2R,3S,4R,5S,6R)-3,4,5-trihydroxy-6-(hydroxymethyl)tetrahydropyran-2-yl]ethynyl]spiro[fluorene-9,4piperidine]-2-yl]ethynyl]tetrahydropyran-3,4,5-triol], for which the IC50 came to 3.2 nM.
Still for that read-out and setting: then `OC[C@H]1O[C@H](C#Cc2ccc(C#C[C@H]3O[C@H](CO)[C@@H](O)[C@H](O)[C@@H]3O)c3ccccc23)[C@@H](O)[C@@H](O)[C@@H]1O` [Compound 136, (2R,3S,4R,5S,6R)-2-(hydroxymethyl)-6-[2-[4-[2-[(2R,3S,4R,5S,6R)-3,4,5-trihydroxy-6-(hydroxymethyl)tetrahydropyran-2-yl]ethynyl]-1-naphthyl]ethynyl]tetrahydropyran-3,4,5-triol], with 145 nM; and `OC[C@H]1O[C@H](C#Cc2ccc(C#C[C@H]3O[C@H](CO)[C@@H](O)[C@H](O)[C@@H]3O)c(F)c2F)[C@@H](O)[C@@H](O)[C@@H]1O` [Compound 78, (2R,3S,4R,5S,6R)-2-[2-[2,3-difluoro-4-[2-[(2R,3S,4R,5S,6R)-3,4,5-trihydroxy-6-(hydroxymethyl)tetrahydropyran-2-yl]ethynyl]phenyl]ethynyl]-6-(hydroxymethyl)tetrahydropyran-3,4,5-triol], with 63 nM.
For `Cc1c(C)c(C#C[C@H]2O[C@H](CO)[C@@H](O)[C@H](O)[C@@H]2O)c(C)c(C)c1C#C[C@H]1O[C@H](CO)[C@@H](O)[C@H](O)[C@@H]1O` [Compound 84, (2R,3S,4R,5S,6R)-2-(hydroxymethyl)-6-[2-[2,3,5,6-tetramethy1-4-[2-[(2R,3S,4R,5S,6R)-3,4,5-trihydroxy-6-(hydroxymethyl)tetrahydropyran-2-yl]ethynyl]phenyl]ethynyl]tetrahydropyran-3,4,5-triol], the IC50 was found to be 315 nM.
Same read-out and setting: the result for `OC[C@H]1O[C@H](C#Cc2cc(F)c(C#C[C@H]3O[C@H](CO)[C@@H](O)[C@H](O)[C@@H]3O)cc2F)[C@@H](O)[C@@H](O)[C@@H]1O` [Compound 88, (2R,3S,4R,5S,6R)-2-[2-[2,5-difluoro-4-[2-[(2R,3S,4R,5S,6R)-3,4,5-trihydroxy-6-(hydroxymethyl)tetrahydropyran-2-yl]ethynyl]phenyl]ethynyl]-6-(hydroxymethyl)tetrahydropyran-3,4,5-triol] reads 132 nM; that for `N#Cc1cc(C#C[C@H]2O[C@H](CO)[C@@H](O)[C@H](O)[C@@H]2O)ccc1C#C[C@H]1O[C@H](CO)[C@@H](O)[C@H](O)[C@@H]1O` [Compound 101, 2,5-bis[2-[(2R,3S,4R,5S,6R)-3,4,5-trihydroxy-6-(hydroxymethyl)tetrahydropyran-2-yl]ethynyl]benzonitrile], 21 nM.
For the molecule `OC[C@H]1O[C@H](C#Cc2ccc3c(c2)C(CO)(CO)c2cc(C#C[C@H]4O[C@H](CO)[C@@H](O)[C@H](O)[C@@H]4O)ccc2-3)[C@@H](O)[C@@H](O)[C@@H]1O` [Compound 217, (2R,3S,4R,5S,6R)-2-[2-[9,9-Bis(hydroxymethyl)-7-[2-[(2R,3S,4R,5S,6R)-3,4,5-trihydroxy-6-(hydroxymethyl)tetrahydropyran-2-yl]ethynyl]fluoren-2-yl]ethynyl]-6-(hydroxymethyl)tetrahydropyran-3,4,5-triol], the IC50 amounted to 20 nM.
Consider `CC(C)c1cc(C#C[C@H]2O[C@H](CO)[C@@H](O)[C@H](O)[C@@H]2O)c(C(C)C)cc1C#C[C@H]1O[C@H](CO)[C@@H](O)[C@H](O)[C@@H]1O` [Compound 76], for which the IC50 came to 46 nM.
Still for that read-out and setting: then `OC[C@H]1O[C@H](C#Cc2cc3sc(C#C[C@H]4O[C@H](CO)[C@@H](O)[C@H](O)[C@@H]4O)cc3s2)[C@@H](O)[C@@H](O)[C@@H]1O` [Compound 133], with 28 nM.
On the same count and under the same terms, then `OC[C@H]1O[C@H](C#Cc2cc3cc(C#C[C@H]4O[C@H](CO)[C@@H](O)[C@H](O)[C@@H]4O)sc3s2)[C@@H](O)[C@@H](O)[C@@H]1O` [Compound 123, (2R,3S,4R,5S,6R)-2-(hydroxymethyl)-6-[2-[5-[2-[(2R,3S,4R,5S,6R)-3,4,5-trihydroxy-6-(hydroxymethyl)tetrahydropyran-2-yl]ethynyl]thieno[2,3-b]thiophen-2-yl]ethynyl]tetrahydropyran-3,4,5-triol], with 41 nM; and `COCc1cc(C#C[C@H]2O[C@H](CO)[C@@H](O)[C@H](O)[C@@H]2O)ccc1C#C[C@H]1O[C@H](CO)[C@@H](O)[C@H](O)[C@@H]1O` [Compound 79, (2R,3S,4R,5S,6R)-2-(hydroxymethyl)-6-[2-[3-(methoxymethyl)-4-[2-[(2R,3S,4R,5S,6R)-3,4,5-trihydroxy-6-(hydroxymethyl)tetrahydropyran-2-yl]ethynyl]phenyl]ethynyl]tetrahydropyran-3,4,5-triol], with 37 nM; and `COc1cc([C@H]2O[C@H](CO)[C@@H](O)[C@H](O)[C@@H]2O)ccc1C#C[C@H]1O[C@H](CO)[C@@H](O)[C@H](O)[C@@H]1O` [Compound 145], with 430 nM.
Same read-out and setting: the result for `OCCc1cc(C#C[C@H]2O[C@H](CO)[C@@H](O)[C@H](O)[C@@H]2O)ccc1C#C[C@H]1O[C@H](CO)[C@@H](O)[C@H](O)[C@@H]1O` [Compound 94, (2R,3S,4R,5S,6R)-2-[2-[3-(2-hydroxyethyl)-4-[2-[(2R,3S,4R,5S,6R)-3,4,5-trihydroxy-6-(hydroxymethyl)tetrahydropyran-2-yl]ethynyl]phenyl]ethynyl]-6-(hydroxymethyl)tetrahydropyran-3,4,5-triol] reads 20 nM; that for `Cc1cc(-c2ccc([C@H]3O[C@H](CO)[C@@H](O)[C@H](O)[C@@H]3O)cc2F)ccc1[C@H]1O[C@H](CO)[C@@H](O)[C@H](O)[C@@H]1O` [Compound 150, (2R,2,3S,3,4R,4,5S,5,6R,6)-6,6(2-fluoro-3methyl-[1,1biphenyl]-4,4diyl)bis(2-(hydroxymethyl)tetrahydro-2H-pyran-3,4,5-triol)], 71 nM.
Turning to `O=C(CCn1cccn1)c1c(C#C[C@H]2O[C@H](CO)[C@@H](O)[C@H](O)[C@@H]2O)ccc2c1C1(CCNCC1)c1cc(C#C[C@H]3O[C@H](CO)[C@@H](O)[C@H](O)[C@@H]3O)ccc1-2` [Compound 240, 1-[2,7-bis[2-[(2R,3S,4R,5S,6R)-3,4,5-trihydroxy-6-(hydroxymethyl)tetrahydropyran-2-yl]ethynyl]spiro[fluorene-9,4piperidine]-1yl]-3-pyrazol-1-yl-propan-1-one], the IC50 stood at 0.05 nM.
For the molecule `OC[C@H]1O[C@H](c2cccc(-c3ccc(-c4cccc([C@H]5O[C@H](CO)[C@@H](O)[C@H](O)[C@@H]5O)c4)cc3)c2)[C@@H](O)[C@@H](O)[C@@H]1O` [Compound 139, (2R,3S,4R,5S,6R)-2-(hydroxymethyl)-6-[3-[4-[3-[(2R,3S,4R,5S,6R)-3,4,5-trihydroxy-6-(hydroxymethyl)tetrahydropyran-2-yl]phenyl]phenyl]phenyl]tetrahydropyran-3,4,5-triol], the IC50 was 46 nM.
On the same count and under the same terms, then `CCc1cc(C#C[C@H]2O[C@H](CO)[C@@H](O)[C@H](O)[C@@H]2O)cc(CC)c1C#C[C@H]1O[C@H](CO)[C@@H](O)[C@H](O)[C@@H]1O` [Compound 73], with 21 nM; and `OC[C@H]1O[C@H](C#Cc2ccc3c4ccc(C#C[C@H]5O[C@H](CO)[C@@H](O)[C@H](O)[C@@H]5O)cc4n(C4CCOCC4)c3c2)[C@@H](O)[C@@H](O)[C@@H]1O` [Compound 184, (2R,3S,4R,5S,6R)-2-(hydroxymethyl)-6-[2-[9-tetrahydropyran-4-yl-7-[2-[(2R,3S,4R,5S,6R)-3,4,5-trihydroxy-6-(hydroxymethyl)tetrahydropyran-2-yl]ethynyl]carbazol-2-yl]ethynyl]tetrahydropyran-3,4,5-triol], with 0.83 nM; and `Cc1cc([C@H]2O[C@H](CO)[C@@H](O)[C@H](O)[C@@H]2O)ccc1C#C[C@H]1O[C@H](CO)[C@@H](O)[C@H](O)[C@@H]1O` [Compound 143], with 240 nM.
Consider `OC[C@H]1O[C@H](C#Cc2cc(C#C[C@H]3O[C@H](CO)[C@@H](O)[C@H](O)[C@@H]3O)c3[nH]ncc3c2)[C@@H](O)[C@@H](O)[C@@H]1O` [Compound 212, (2R,3S,4R,5S,6R)-2-(hydroxymethyl)-6-[2-[7-[2-[(2R,3S,4R,5S,6R)-3,4,5-trihydroxy-6-(hydroxymethyl)tetrahydropyran-2-yl]ethynyl]-1H-indazol-5-yl]ethynyl]tetrahydropyran-3,4,5-triol], for which the IC50 was found to be 4.9 nM.
Turning to `COc1cccc(C2(O)c3cc(C#C[C@H]4O[C@H](CO)[C@@H](O)[C@H](O)[C@@H]4O)ccc3-c3ccc(C#C[C@H]4O[C@H](CO)[C@@H](O)[C@H](O)[C@@H]4O)cc32)c1` [Compound 170, (2R,3S,4R,5S,6R)-2-[2-[9-hydroxy-9-(3-methoxyphenyl)-7-[2-[(2R,3S,4R,5S,6R)-3,4,5-trihydroxy-6-(hydroxymethyl)tetrahydropyran-2-yl]ethynyl]fluoren-2-yl]ethynyl]-6-(hydroxymethyl)tetrahydropyran-3,4,5-triol], the IC50 stood at 7.5 nM.
For `OCCn1c2cc(C#C[C@H]3O[C@H](CO)[C@@H](O)[C@H](O)[C@@H]3O)ccc2c2ccc(C#C[C@H]3O[C@H](CO)[C@@H](O)[C@H](O)[C@@H]3O)cc21` [Compound 182, (2R,3 S,4R,5S,6R)-2-[2-[9-(2-Hydroxyethyl)-7-[2-[(2R,3 S,4R,5S,6R)-3,4,5-trihydroxy-6-(hydroxymethyl)tetrahydropyran-2-yl]ethynyl]carbazol-2-yl]ethynyl]-6-(hydroxymethyl)tetrahydropyran-3,4,5-triol], the IC50 amounted to 1.4 nM.
